Like-named read-outs stand apart in the source and are kept apart here.
Key:
[1] = oral absorption of gallium in rats (4-hour plasma gallium AUC); assay type: in vivo, Male Sprague Dawley rats; settings: rat, 0.067 mmol/kg, 0-4 hours, absorption from the intestine
Method: According to the invention, compounds were tested for oral absorption in rats. Male Sprague Dawley rats weighing 150-225 g were purchased from Harlan Sprague Dawley, Inc. (Indianapolis, Ind.). The gallium standard solution is from Aldrich Chemical Co (Milwaukee, Wis.). Metofane is a product from Pitman-Moore (Mundelein, Ill.), and all other chemicals are commercially available. Gallium test compounds were dissolved in 18 megaohm water (Millipore, Bedford, Mass.) or suspended in 0.5% carboxymethyl cellulose in 5% ethanol, if the compound was not water soluble. The suspensions were sonicated at room temperature for about 5 minutes. […]
Sutures were made with 3-4 stitches with 3-0 silk surgical thread (Ethicon Inc, Somerville, N.J.). […] The blood was placed in 1 ml Eppendorf tubes precoated with 50 μl heparin (1,000 U/ml and air dried, so there was no blood dilution involved. The plasma was recovered after the blood was centrifuged for 2 minutes in a Fischer Micro-centrifuge, Model 235B, and its gallium content measured by a Varian Flameless Atomic Absorption Spectrometer. The standard curve was linear in the gallium concentrations of 5-100 ng/ml. The data under the […] versus time curve (AUC) for 0-4 hours was estimated. […]

[2] = pH 4.5-7; cited from earlier work
[3] = test system: gastro-intestinal tract; settings: pH 4.5-7; cited from earlier work
[4] = test system: renal toxicity; settings: cited from earlier work
[5] = test system: cancer-associated hypercalcemia; settings: cited from earlier work
[6] = test system: bone; settings: cited from earlier work

Structure (SMILES): O=[N+]([O-])[O-].O=[N+]([O-])[O-].O=[N+]([O-])[O-].[Ga+3] [Ga(NO3)3, gallium nitrate]
- 4-hour plasma gallium AUC [1]: 897 (ng//ml)h

Structure (SMILES): [Ga+3] [gallium(III) aquo-ion]
- hydrolysis [2]: extensively hydrolysed to insoluble hydroxides
- absorption [3]: very poorly absorbed

Structure (SMILES): [Ga] [gallium]
- renal toxicity ([4]; i.v. bolus): renal toxicity is dose-limiting
- renal toxicity ([4]; seven day continuous i.v. infusion, cancer-associated hypercalcemia): showed no renal toxicity
- serum calcium ([5]; patients with hypercalcemia of malignancy): reduce serum calcium
- efficacy in cancer-associated hypercalcemia ([5]; seven day continuous i.v. infusion): effective
- bone strength [6]: increases bone strength
- resorption of calcium from bone [6]: inhibiting the resorption of calcium from bone
